Assay results from US9591978B2, “Methods and compositions for pre-screening patients for treatment with noribogaine” (DemeRX, Inc., priority 2014, dated 2017).
“Also recorded” adds a separate entry of the source.

What was measured:
[1] = Pharmacokinetics of noribogaine in healthy volunteers (plasma, LCMSMS); details: for AUC0-216 / AUC0-∞ / Cmax / Tmax / t1/2 / CL/F: healthy male volunteers, fasted, n = 6, mean (SD); for mean AUC/24 hr / mean AUC/24: fasting conditions
[2] = system: healthy, drug-free male volunteers; assay: Cold pressor test (analgesic effect) in healthy volunteers; format: in vivo, human
Experimental: Analgesic effect was assessed based on duration of hand immersion in ice water and on visual analog scale (VAS) pain scores upon hand removal from the water bath.
(§1) Safety and tolerability of noribogaine were tested in the group of volunteers from Example 1. […] Safety evaluations included clinical monitoring, recording of adverse events (AEs), safety laboratory tests, vital signs, ECG telemetry from −2 h to 6 h after dosing, and 12-lead electrocardiograms (ECGs) up to 216 hours post-dosing.

[3] = system: healthy, drug-free male volunteers; assay: Safety and tolerability of noribogaine in healthy humans; format: in vivo, human
Experimental: (§2) Pulse oximetry and capnography data were collected continuously using a GE Carescape B650 monitoring system from 2 hours prior to dosing and until six hours after dosing, and thereafter at 12, 24, 48 and 72 hours post-dosing. […] Pupillary miosis was assessed by pupillometry.
as §1

[4] = system: opioid-dependent participants; assay: Opiate withdrawal scales (COWS, SOWS, OOWS); format: in vivo, human; details: first six hours following dosing
Experimental: Patients were evaluated based on the Clinical Opiate Withdrawal Scale (COWS), Subjective Opiate Withdrawal Scale (SOWS), and Objective Opiate Withdrawal Scale (OOWS) scoring systems over the period of time between administration of noribogaine (or placebo) until resumption of OST. These scales are outlined in Guidelines for the Psychosocially Assisted Pharmacological Treatment of Opioid Dependence, World Health Organization, Geneva (2009), Annex 10, which is incorporated herein by reference in its entirety. The scales measure the intensity of withdrawal symptoms, based on clinical, subjective, and objective indicia.

[5] = system: opioid-dependent participants; assay: QT interval prolongation in opioid-dependent patients; format: in vivo, human
Experimental: Patients' QT intervals were evaluated at regular time points throughout the study.

[6] = Pharmacokinetics in opioid-dependent patients (Phase IB study); details: 60-180 mg
[7] = system: opioid-dependent participants; assay: Treatment emergent adverse events in opioid-dependent participants
[8] = system: opioid-dependent participants; assay: Time to resumption of opioid substitution treatment (OST); format: in vivo, human; details: for therapeutic response: methadone addicted patients
[9] = system: healthy, drug-free male volunteers; assay: Pupillometry (pupillary miosis) in healthy volunteers; format: in vivo, human
Experimental: as §2
Summary statistics (means, standard deviations, and coefficients of variation) were determined for each dose group for safety laboratory test data, ECG and pharmacokinetic parameters, and pharmacodynamic variables. Categorical variables were analysed using counts and percentages. Dose-proportionality of AUC and Cmax was assessed using linear regression. The effect of dose on pharmacodynamic parameter values over time was assessed using two-factor analysis of variance (ANOVA). Pairwise comparisons (with Tukey-Kramer adjustment) between each dose group to the placebo were conducted at each time point using the least squares estimates obtained from the ANOVA, using SAS Proc Mixed (SAS ver 6.0).

[10] = 30 mg and 60 mg noribogaine dose groups
[11] = after adjusting for baseline, p>0.9
[12] = opioid-dependent participants, 60, 120, 180 mg
[13] = opioid-dependent patients, single 60 mg noribogaine dose, N = 6
[14] = opioid-dependent patients, single 120 mg noribogaine dose, N = 6
[15] = opioid-dependent patients, single 180 mg noribogaine dose, N = 6

CC[C@H]1C[C@@H]2C[C@H]3c4[nH]c5ccc(OC6OC(C(=O)O)C(O)C(O)C6O)cc5c4CCN(C2)[C@@H]13 (some centres unmarked) [Noribogaine glucuronide, noribogaine glucuronide]
mean half-life in plasma [1, 10]: 21 to 23 h | time by which detected in plasma of all subjects [1, 10]: ≤ 0.75 h | time of peak concentrations after noribogaine dosing [1, 10]: 3 to 4 h | proportion of Cmax and AUC relative to noribogaine ([1]; both dose groups (30 mg, 60 mg)): 3-4% | AUC0-216 ([1]; single oral 30 mg noribogaine): 25.7 (9.1) ng · hr/ml | AUC0-∞ ([1]; single oral 30 mg noribogaine): 25.8 (9.3) ng · hr/ml | Cmax ([1]; single oral 30 mg noribogaine): 1.8 (0.6) ng/ml | Tmax ([1]; single oral 30 mg noribogaine): 3.0 (0.6) hr | t1/2 ([1]; single oral 30 mg noribogaine): 20.6 (4.9) hr | AUC0-216 ([1]; single oral 60 mg noribogaine): 65.0 (21.5) ng · hr/ml | AUC0-∞ ([1]; single oral 60 mg noribogaine): 67.1 (21.9) ng · hr/ml | Cmax ([1]; single oral 60 mg noribogaine): 4.1 (1.2) ng/ml | Tmax ([1]; single oral 60 mg noribogaine): 3.8 (1.2) hr | t1/2 ([1]; single oral 60 mg noribogaine): 23.1 (3.0) hr

CC[C@H]1CC2C[C@H]3c4[nH]c5ccc(O)cc5c4CCN(C2)C13 [noribogaine]
CL/F ([1]; single oral 3 mg noribogaine): 41.4 (7.0) L/h | CL/F ([1]; single oral 10 mg noribogaine): 42.3 (12.0) L/h | CL/F ([1]; single oral 30 mg noribogaine): 46.9 (16.4) L/h | CL/F ([1]; single oral 60 mg noribogaine): 34.0 (11.4) L/h | dose-proportionality of Cmax and AUC ([1]; healthy volunteers, 3-60 mg): increased linearly with dose | time of peak concentrations after oral dosing ([1]; healthy volunteers, across 3-60 mg dose groups): 2 to 3 h | mean half-life estimates ([1]; healthy volunteers, across dose groups): 28 to 50 h | mean AUC/24 hr ([1]; single dose of 3 mg noribogaine free base): 3.1 ng/mL | mean AUC/24 hr ([1]; single dose of 10 mg noribogaine free base): 10.6 ng/mL | mean AUC/24 ([1]; single dose of 30 mg noribogaine free base): 29.2 ng/mL | mean AUC/24 ([1]; single dose of 60 mg noribogaine free base): 61 ng/mL | VAS pain scores, each dose group vs placebo by ANOVA ([2]; after adjusting for baseline, p=0.17): no statistically significant differences | duration of hand immersion, each dose group vs placebo by ANOVA [2, 11]: no statistically significant differences | analgesic effect in the cold pressor test ([2]; healthy volunteers, 3-60 mg single oral dose, 1° C. water): no analgesic effect | adverse events reported ([3]; 3 mg dose group, by two subjects): five | adverse events reported ([3]; 10 mg dose group, single subject): one | adverse events reported ([3]; 30 mg dose group, single subject): one | intensity of adverse events ([3]; all adverse events of the study, all resolved prior to study completion): mild-moderate | Adverse events: Mild ([3]; healthy volunteers, 3 mg): Dizziness; also recorded: Epistaxis; also recorded: Headache; also recorded: Back pain | Adverse events: Moderate ([3]; healthy volunteers, 3 mg): Headache | Adverse events: Mild ([3]; healthy volunteers, 10 mg): Headache | Adverse events: Mild ([3]; healthy volunteers, 30 mg): Headache | oximetry, capnography, respiratory rate ([3]; healthy volunteers, 3-60 mg): no changes in oximetry or capnography, or changes in respiratory rate | vital signs and safety laboratory tests ([3]; healthy volunteers, 3-60 mg): no changes in vital signs or safety laboratory tests of note | QTcF values ([3]; healthy volunteers, at any time): ≤ 500 ms | increase in QTcF ([3]; one subject dosed with 10 mg, single increase at 24 hours post-dosing): > 60 ms | withdrawal symptoms (COWS, OOWS, SOWS) ([4]; 120 mg): generally experienced fewer withdrawal symptoms than the other patients | withdrawal symptoms compared with placebo (COWS, OOWS, SOWS) ([4]; 60, 120, 180 mg): Patients administered placebo generally experienced more withdrawal symptoms than patients who were administered noribogaine | QT interval prolongation (ΔQTcl) versus dose and serum concentration ([5]; 60, 120, 180 mg, first 24 hours post administration): dose-dependent increase in QT interval prolongation | relation of QT interval prolongation to dose ([5]; doubling the dose gives about a doubling of the prolongation): linear pattern | QT interval in some patients ([5]; patients receiving 120 mg): greater than 500 ms | QT interval prolongation in some patients ([5]; patients receiving 120 mg): greater than 50 ms | average QT interval prolongation ([5]; patients receiving 120 mg): approximately 38 ms | maximum serum concentration (Cmax) versus dose [6]: increased in a dose-dependent manner | headaches ([7]; 60 mg noribogaine treatment group): frequent | headaches ([7]; 120 mg dose group): attenuated | headaches ([7]; 180 mg dose group): attenuated | adverse effects observed [7, 12]: Few adverse effects | hallucinatory effects [7, 12]: no hallucinatory effects | Treatment emergent adverse events: Catheter Site Infection [7, 13]: 0 | Treatment emergent adverse events: Catheter Site Pain [7, 13]: 0 | Treatment emergent adverse events: Catheter Site Related Reaction [7, 13]: 0 | Treatment emergent adverse events: Cellulitis [7, 13]: 0 | Treatment emergent adverse events: Diarrhoea [7, 13]: 0 | Treatment emergent adverse events: Dry Mouth [7, 13]: 0 | Treatment emergent adverse events: Ear and Labyrinth Disorders [7, 13]: 0 | Treatment emergent adverse events: Epistaxis [7, 13]: 0 | Treatment emergent adverse events: Euphoric Mood [7, 13]: 0 | Treatment emergent adverse events: General Disorders and Administration Site Conditions [7, 13]: 0 | Treatment emergent adverse events: Hyperaesthesia [7, 13]: 0 | Treatment emergent adverse events: Infections and Infestations [7, 13]: 0 | Treatment emergent adverse events: Limb Discomfort [7, 13]: 0 | Treatment emergent adverse events: Malaise [7, 13]: 0 | Treatment emergent adverse events: Nausea [7, 13]: 0 | Treatment emergent adverse events: Oropharyngeal Pain [7, 13]: 0 | Treatment emergent adverse events: Pseudoparalysis [7, 13]: 0 | Treatment emergent adverse events: Respiratory, Thoracic and Mediastinal Disorders [7, 13]: 0 | Treatment emergent adverse events: Rhinorrhoea [7, 13]: 0 | Treatment emergent adverse events: Skin Discomfort [7, 13]: 0 | Treatment emergent adverse events: Skin Irritation [7, 13]: 0 | Treatment emergent adverse events: Skin and Subcutaneous Tissue Disorders [7, 13]: 0 | Treatment emergent adverse events: Somnoience [7, 13]: 0 | Treatment emergent adverse events: Tinnitus [7, 13]: 0 | Treatment emergent adverse events: Tremor [7, 13]: 0 | Treatment emergent adverse events: Urinary Tract Infection [7, 13]: 0 | Treatment emergent adverse events: Vomiting [7, 13]: 0 | Treatment emergent adverse events: Back Pain [7, 14]: 0 | Treatment emergent adverse events: Catheter Site Infection [7, 14]: 0 | Treatment emergent adverse events: Catheter Site Related Reaction [7, 14]: 0 | Treatment emergent adverse events: Depressed Mood [7, 14]: 0 | Treatment emergent adverse events: Dry Eye [7, 14]: 0 | Treatment emergent adverse events: Dyspepsia [7, 14]: 0 | Treatment emergent adverse events: Euphoric Mood [7, 14]: 0 | Treatment emergent adverse events: Limb Discomfort [7, 14]: 0 | Treatment emergent adverse events: Malaise [7, 14]: 0 | Treatment emergent adverse events: Musculoskeletal and Connective Tissue Disorders [7, 14]: 0 | Treatment emergent adverse events: Psychiatric Disorders [7, 14]: 0 | Treatment emergent adverse events: Somnoience [7, 14]: 0 | Treatment emergent adverse events: Urinary Tract Infection [7, 14]: 0 | Treatment emergent adverse events: Catheter Site Infection [7, 15]: 0 | Treatment emergent adverse events: Catheter Site Pain [7, 15]: 0 | Treatment emergent adverse events: Depressed Mood [7, 15]: 0 | Treatment emergent adverse events: Diarrhoea [7, 15]: 0 | Treatment emergent adverse events: Dry Eye [7, 15]: 0 | Treatment emergent adverse events: Dyspepsia [7, 15]: 0 | Treatment emergent adverse events: Ear and Labyrinth Disorders [7, 15]: 0 | Treatment emergent adverse events: Epistaxis [7, 15]: 0 | Treatment emergent adverse events: Euphoric Mood [7, 15]: 0 | Treatment emergent adverse events: Hyperaesthesia [7, 15]: 0 | Treatment emergent adverse events: Malaise [7, 15]: 0 | Treatment emergent adverse events: Oropharyngeal Pain [7, 15]: 0 | Treatment emergent adverse events: Pseudoparalysis [7, 15]: 0 | Treatment emergent adverse events: Psychiatric Disorders [7, 15]: 0 | Treatment emergent adverse events: Respiratory, Thoracic and Mediastinal Disorders [7, 15]: 0 | Treatment emergent adverse events: Rhinorrhoea [7, 15]: 0 | Treatment emergent adverse events: Skin Discomfort [7, 15]: 0 | Treatment emergent adverse events: Skin Irritation [7, 15]: 0 | Treatment emergent adverse events: Skin and Subcutaneous Tissue Disorders [7, 15]: 0 | Treatment emergent adverse events: Somnoience [7, 15]: 0 | Treatment emergent adverse events: Tinnitus [7, 15]: 0 | Treatment emergent adverse events: Tremor [7, 15]: 0 | time to resumption of opioid substitution therapy compared with 60 mg ([8]; 120 mg): significantly longer | time to resumption of OST compared with untreated patients or 60 mg noribogaine ([8]; 180 mg): still longer | therapeutic response ([8]; single 60 mg dosing): generally does not provide a meaningful therapeutic response | therapeutic response ([8]; single 120 mg dosing): generally provides a meaningful therapeutic response | average time to resumption of opioids ([8]; single 120 mg dose): greater than 20 hours | pupil diameter, each dose group vs placebo by ANOVA [9, 11]: no statistically significant differences | pupillary constriction ([9]; healthy volunteers, 3-60 mg single oral dose): no evidence of pupillary constriction
